# Test results taken from ChEMBL document CHEMBL3297734, “Cationic lipid-conjugated dexamethasone as a selective antitumor agent” (Eur J Med Chem, 2014).
# Active and inactive are the calls of the source. The rule behind the calls is not given here.
# Columns and labels:
# HEK-293T [1] = test: Induction of apoptosis in HEK293T cells assessed as early apoptotic cells at 10 uM after 48 hrs using FITC-annexin V-FITC/propidium iodide by flow cytometry (reference value: 0.3%); type: cell-based; conditions: human
# HEK-293T [2] = test: Induction of apoptosis in HEK293T cells assessed as necrotic cells at 10 uM after 48 hrs using FITC-annexin V-FITC/propidium iodide by flow cytometry (reference value: 0.7%); type: cell-based; conditions: human
# CHO [3] = test: Induction of apoptosis in CHO cells assessed as necrotic cells at 10 uM after 48 hrs using FITC-annexin V-FITC/propidium iodide by flow cytometry (Rvb =6.6%); type: cell-based, Cricetulus griseus; conditions: chinese hamster
# B16-F10 [4] = test: Antitumor activity against mouse B16F10 cells xenografted in C57BL/6 mouse assessed as apoptotic regions at 20 mg/kg, ip measured after 24 days of tumor inoculation by TUNEL assay; type: functional, organism-based; set-up: dose 20 mg/kg
# CHO [5] = test: Induction of apoptosis in CHO cells assessed as late apoptotic cells at 10 uM after 48 hrs using FITC-annexin V-FITC/propidium iodide by flow cytometry (reference value: 0%); type: cell-based, Cricetulus griseus; conditions: chinese hamster
# [6] = Induction of apoptosis in HEK293T cells assessed as viable cells at 10 uM after 48 hrs using FITC-annexin V-FITC/propidium iodide by flow cytometry (reference value: 98.6%); type: cell-based, HEK-293T; conditions: human, read-out: Activity
# B16-F10 [7] = test: Induction of apoptosis in mouse B16F10 cells assessed as early apoptotic cells at 10 uM after 48 hrs using FITC-annexin V-FITC/propidium iodide by flow cytometry (reference value: 0.7%); type: functional
# MCF7 [8] = test: Induction of apoptosis in human MCF7 cells assessed as viable cells at 10 uM after 48 hrs using FITC-annexin V-FITC/propidium iodide by flow cytometry (reference value: 86.4%); type: functional; conditions: MCF7, 48 h, read-out: Activity
# [9] = Cytotoxicity against mouse fibroblasts after 72 hrs by MTT assay; type: cell-based; conditions: Fibroblast
# B16-F10 [10] = test: Induction of apoptosis in mouse B16F10 cells assessed as late apoptotic cells at 10 uM after 48 hrs using FITC-annexin V-FITC/propidium iodide by flow cytometry (reference value: 2.5%); type: functional
# [11] = Induction of apoptosis in CHO cells assessed as viable cells at 10 uM after 48 hrs using FITC-annexin V-FITC/propidium iodide by flow cytometry (reference value: 93.3%); type: cell-based, Cricetulus griseus; conditions: chinese hamster, read-out: Activity
# MCF7 [12] = test: Induction of apoptosis in human MCF7 cells assessed as late apoptotic cells at 10 uM after 48 hrs using FITC-annexin V-FITC/propidium iodide by flow cytometry (reference value: 3.5%); type: functional
# MCF7 [13] = test: Induction of apoptosis in human MCF7 cells assessed as necrotic cells at 10 uM after 48 hrs using FITC-annexin V-FITC/propidium iodide by flow cytometry (reference value: 7.1%); type: functional
# B16-F10 [14] = test: Induction of apoptosis in mouse B16F10 cells assessed as increase in ratio of BAX/Bcl2 expression at 10 uM after 48 hrs by Western blot analysis relative to untreated control; type: functional, cell-based
# B16-F10 [15] = test: Antitumor activity against mouse B16F10 cells xenografted in C57BL/6 mouse assessed as apoptotic regions at 20 mg/kg, ip measured after 24 days of tumor inoculation by VE-cadherin; type: functional, organism-based; set-up: dose 20 mg/kg
# HEK-293T [16] = test: Induction of apoptosis in HEK293T cells assessed as late apoptotic cells at 10 uM after 48 hrs using FITC-annexin V-FITC/propidium iodide by flow cytometry (reference value: 0.4%); type: cell-based; conditions: human
# CHO [17] = test: Induction of apoptosis in CHO cells assessed as early apoptotic cells at 10 uM after 48 hrs using FITC-annexin V-FITC/propidium iodide by flow cytometry (reference value: 0.1%); type: cell-based, Cricetulus griseus; conditions: chinese hamster
# B16-F10 [18] = test: Antitumor activity against mouse B16F10 cells xenografted in C57BL/6 mouse assessed as inhibition tumor growth at 20 mg/kg, ip measured after 24 days of tumor inoculation; type: functional, organism-based; set-up: dose 20 mg/kg
# [19] = Anticancer against mouse B16F10 cells after 72 hrs by MTT assay; type: functional, cell-based; conditions: B16-F10, 72 h
# MCF7 [20] = test: Induction of apoptosis in human MCF7 cells assessed as early apoptotic cells at 10 uM after 48 hrs using FITC-annexin V-FITC/propidium iodide by flow cytometry (reference value: 3%); type: functional
# MCF7 [21] = test: Anticancer against human MCF7 cells after 72 hrs by MTT assay; type: functional, cell-based; conditions: MCF7, 72 h
# A549 = test: Anticancer against human A549 cells after 72 hrs by MTT assay; type: functional, cell-based; conditions: A549, 72 h
# B16-F10 [22] = test: Induction of apoptosis in mouse B16F10 cells assessed as viable cells at 10 uM after 48 hrs using FITC-annexin V-FITC/propidium iodide by flow cytometry (reference value: 95.1%); type: functional; conditions: B16-F10, 48 h, read-out: Activity
# B16-F10 [23] = test: Induction of apoptosis in mouse B16F10 cells assessed as necrotic cells at 10 uM after 48 hrs using FITC-annexin V-FITC/propidium iodide by flow cytometry (reference value: 1.7%); type: functional
# HEK-293T [24] = test: Cytotoxicity against HEK293T cells after 72 hrs by MTT assay; type: cell-based; conditions: Homo sapiens
# CHO [25] = test: Cytotoxicity against CHO cells after 72 hrs by MTT assay; type: cell-based; conditions: Cricetulus griseus
# B16-F10 [26] = test: Induction of apoptosis in mouse B16F10 cells assessed as down-regulation of XIAP at 10 uM after 48 hrs by Western blot analysis; type: functional, cell-based
# B16-F10 [27] = test: Induction of apoptosis in mouse B16F10 cells assessed as Akt destruction at 10 uM after 48 hrs by Western blot analysis; type: functional, cell-based
# MCF7 [28] = test: Cytotoxicity against human MCF7 cells transfected with GR-siRNA assessed as cell viability after 48 hrs by flow cytometry; type: functional, cell-based
# B16-F10 [29] = test: Induction of apoptosis in mouse B16F10 cells assessed as caspase 9 activation at 10 uM after 48 hrs by Western blot analysis; type: functional, cell-based
# B16-F10 [30] = test: Induction of apoptosis in mouse B16F10 cells assessed as down-regulation of JAK3/STAT3 at 10 uM after 48 hrs by Western blot analysis; type: functional, cell-based
# B16-F10 [31] = test: Antitumor activity against mouse B16F10 cells xenografted in C57BL/6 mouse assessed as reduction in angiogenesis in tumor measured as VEGRF2 expression at 20 mg/kg, ip measured after 24 days of tumor inoculation by microscopy relative to untreated control; type: functional, organism-based; set-up: dose 20 mg/kg
# B16-F10 [32] = test: Cytotoxicity against mouse B16F10 cells assessed as cell viability after 48 hrs by flow cytometry in presence of RU-486 GR antagonist; type: functional, cell-based
# B16-F10 [33] = test: Antitumor activity against mouse B16F10 cells xenografted in C57BL/6 mouse assessed as down-regulation of p-Mdm2 in tumor at 20 mg/kg, ip measured after 24 days of tumor inoculation by Western blot analysis; type: functional, organism-based; set-up: dose 20 mg/kg
# B16-F10 [34] = test: Antitumor activity against mouse B16F10 cells xenografted in C57BL/6 mouse assessed as up-regulation of P53 in tumor at 20 mg/kg, ip measured after 24 days of tumor inoculation by Western blot analysis; type: functional, organism-based; set-up: dose 20 mg/kg
# B16-F10 [35] = test: Induction of apoptosis in mouse B16F10 cells assessed as caspase 3 activation at 10 uM after 48 hrs by Western blot analysis; type: functional, cell-based
# B16-F10 [36] = test: Induction of apoptosis in mouse B16F10 cells assessed as p53 up-regulation at 10 uM after 48 hrs by flow cytometry; type: functional, cell-based
# B16-F10 [37] = test: Induction of apoptosis in mouse B16F10 cells assessed as up-regulation of caspase 7 at 10 uM after 48 hrs by Western blot analysis; type: functional, cell-based
# B16-F10 [38] = test: Induction of apoptosis in mouse B16F10 cells assessed as up-regulation of Smac/Diablo at 10 uM after 48 hrs by Western blot analysis; type: functional, cell-based
# B16-F10 [39] = test: Cytotoxicity against mouse B16F10 cells transfected with GR-siRNA assessed as cell viability after 48 hrs by flow cytometry; type: functional, cell-based
SMILES,Activity (HEK-293T [1]),Activity (HEK-293T [2]),Activity (CHO [3]),Activity (B16-F10 [4]),Activity (CHO [5]),"viability at 48 h, 10 µM [6]",Activity (B16-F10 [7]),viability at 10 µM (MCF7 [8]),IC50 [9],Activity (B16-F10 [10]),"viability at 48 h, 10 µM [11]",Activity (MCF7 [12]),Activity (MCF7 [13]),Activity (B16-F10 [14]),Activity (B16-F10 [15]),IC50 [19],IC50 (MCF7 [21]),IC50 (A549),IC50 (HEK-293T [24]),IC50 (CHO [25]),also measured
C[C@@H]1C[C@H]2[C@@H]3CCC4=CC(=O)C=C[C@]4(C)[C@@]3(F)[C@@H](O)C[C@]2(C)[C@@]1(O)C(=O)CO [DEXAMETHASONE],0.1%,0.4%,4.2%,Active,0%,94.4%,0.8%,82.8%,> 15 µM,3.7%,95.8%,5.9%,9.5%,Active,Active,> 20 µM,> 15 µM,> 15 µM,> 20 µM,> 20 µM,Activity (HEK-293T [16]): 0.1%; Activity (CHO [17]): 0%; inhibition (B16-F10 [18]): Active; Activity (MCF7 [20]): 2.4%; viability at 10 µM (B16-F10 [22]): 94.1%; Activity (B16-F10 [23]): 1.3%
CCCCCCCC[N+](C)(CCCCCCCC)CCNC(=O)[C@@]1(O)[C@H](C)C[C@H]2[C@@H]3CCC4=CC(=O)C=C[C@]4(C)[C@@]3(F)[C@@H](O)C[C@@]21C.[Cl-],0.1%,0.5%,5.9%,Active,0%,99.3%,27%,61.5%,> 15 µM,12.5%,94.1%,7.8%,13.1%,Active,inactive,6 µM,6.5 µM,7.2 µM,> 15 µM,> 15 µM,Activity (B16-F10 [26]): Active; Activity (B16-F10 [27]): Active; Activity (MCF7 [28]): inactive; Activity (B16-F10 [29]): Active; Activity (B16-F10 [30]): Active; inhibition (B16-F10 [31]): Active; Activity (B16-F10 [32]): inactive; Activity (B16-F10 [33]): Active; Activity (B16-F10 [34]): Active; Activity (B16-F10 [35]): Active; Activity (HEK-293T [16]): 0.1%; Activity (CHO [17]): 0%; Activity (B16-F10 [36]): Active; Activity (B16-F10 [37]): Active; Activity (B16-F10 [38]): Active; inhibition (B16-F10 [18]): Active; Activity (MCF7 [20]): 18.6%; Activity (B16-F10 [39]): inactive; viability at 10 µM (B16-F10 [22]): 58%; Activity (B16-F10 [23]): 2.5%
CCCCCCCCCCCCCCCC[N+](C)(CCCCCCCCCCCCCCCC)CCNC(=O)[C@@]1(O)[C@H](C)C[C@H]2[C@@H]3CCC4=CC(=O)C=C[C@]4(C)[C@@]3(F)[C@@H](O)C[C@@]21C,–,–,–,–,–,–,–,–,> 15 µM,–,–,–,–,–,–,> 15 µM,> 15 µM,14.8 µM,> 20 µM,> 15 µM,–
CCCCCCCCCCCC[N+](C)(CCCCCCCCCCCC)CCNC(=O)[C@@]1(O)[C@H](C)C[C@H]2[C@@H]3CCC4=CC(=O)C=C[C@]4(C)[C@@]3(F)[C@@H](O)C[C@@]21C,–,–,–,–,–,–,–,–,> 15 µM,–,–,–,–,–,–,> 15 µM,13.5 µM,14 µM,> 15 µM,> 20 µM,–
CC[N+](C)(CC)CCNC(=O)[C@@]1(O)[C@H](C)C[C@H]2[C@@H]3CCC4=CC(=O)C=C[C@]4(C)[C@@]3(F)[C@@H](O)C[C@@]21C,–,–,–,–,–,–,–,–,> 20 µM,–,–,–,–,–,–,> 20 µM,> 15 µM,> 15 µM,> 20 µM,> 15 µM,–
CCCC[N+](C)(CCCC)CCNC(=O)[C@@]1(O)[C@H](C)C[C@H]2[C@@H]3CCC4=CC(=O)C=C[C@]4(C)[C@@]3(F)[C@@H](O)C[C@@]21C,–,–,–,–,–,–,–,–,> 20 µM,–,–,–,–,–,–,> 20 µM,> 15 µM,> 15 µM,> 15 µM,> 20 µM,–
